Measurements: patent US12479832B2, “Liver targeting drug, pharmaceutical composition and use thereof” (priority 2019, dated 2025)
“And” between values parts separate entries of the source, which are not always exact repeats. Equal entries are not always repeated. “Also recorded” adds a separate entry of the source.

How the values were obtained:
[1] = Pharmacokinetic study: Birinapant in plasma and liver after i.v. Birinapant or I-5-S in rats; conditions: rat, in vivo; for half-life: Birinapant measured after i.v. Birinapant 5 mg/kg, rats
Description: 1. Formulation of preparation and dosing: An appropriate amount of the test sample was precisely weighed, and mixed with an appropriate volume of a solvent (5% DMSO/5% Solutol/90% water) to obtain a clear solution or a homogeneous suspension. The preparation was administered to animals within 4 hours after formulation. The dosage formulation would be administered […] in accordance with facility standard operating procedures. The dosage volume would be determined by the body weights of the animals collected on the morning of administering. 2. Blood collection: Blood (approx. 0.2 ml per point in time) would be drawn each time from the jugular vein of every animal. All blood samples would be transferred to pre-cooled commercial EDTA-K2 test tubes, and kept on wet ice until they were centrifuged. 3. Plasma processing: Blood samples would be centrifuged (3200 rpm, 10 min) at approximately 4° C. Plasma was collected separately and transferred to pre-labeled PP tubes in wet ice at each point in time, and then immediately precipitated by ACN (6 IS) (the ratio of plasma:ACN was 1:4). Centrifugation (10 min, 12,000 rpm) was carried out again to obtain a supernatant. The supernatant was quickly frozen on dry ice and kept at -70±10° C. before LC/MS/MS analysis. 4. Liver processing: Liver tissues were collected at each point in time, washed twice with pre-cooled deionized water, and dried with filter paper. Liver tissues were immediately homogenized with 10-times volume of a methanol-water solution (1:2, v/v). After homogenization, a portion of liver tissue homogenate (e.g., 200 μL of homogenate) was immediately measured. After precipitated on wet ice, the samples were centrifuged, and a supernatant was collected and stored in a refrigerator at -70±10° C. before LC-MS/MS analysis. From the remaining liver homogenate, 800 μL of the homogenate was measured as a spare. […] After the solution of compound Birinapant was intravenously injected into rats, the concentrations of the active compound Birinapant in the rats were determined in the plasma and liver, respectively (see Table 1). After the solution of compound […] was intravenously injected into rats, the concentrations of the active compound Birinapant in the rats were determined in the plasma and liver, respectively (see Table 2).

[2] = Pharmacokinetic test of Compound A or B given orally or intravenously to rats (plasma and liver); format: in vivo; conditions: administered orally or intravenously
Description: To address the above-mentioned problems, the inventors have conducted intensive researches on analogues of Birinapant in the hope of reducing the toxic and side effects on the circulating system while maintaining or improving the therapeutic effect. […] Under the same conditions as described above, after rats were orally or intravenously injected with a solution of Compound A or B, the concentrations of Compound A or B and drug Birinapant in rats were measured in plasma and liver, respectively. […] Therefore, such prodrugs would have no value of application for Birinapant.

[3] = cited from earlier work
[4] = test system: hepatocellular carcinoma; conditions: cited from earlier work
[5] = test system: hepatitis B virus; conditions: animal models; cited from earlier work

SMILES: CC[C@H](NC(=O)[C@H](C)NC)C(=O)N1C[C@@H](OC(C)=O)C[C@H]1Cc1c(-c2[nH]c3cc(F)ccc3c2C[C@@H]2C[C@H](OC(C)=O)CN2C(=O)[C@H](CC)NC(=O)[C@H](C)NC)[nH]c2cc(F)ccc12 [Compound I-5-S]
- conversion of the prodrug into the active drug Birinapant [1]: metabolized into the active pharmaceutical ingredient Birinapant
- reduction of the maximum concentration of Birinapant in the plasma in comparison to direct use of Birinapant ([1]; iv): 94%
- reduction of total drug exposure in the plasma in comparison to direct use of Birinapant ([1]; iv): 49%
- total exposure of Birinapant released in liver relative to direct use of Birinapant ([1]; iv): 2.4 times
- AUC Ratio (L/P) ([1]; iv, 5.97 mg/kg): 194

SMILES: CC[C@H](NC(=O)[C@H](C)N(C)C(=O)OCc1ccccc1)C(=O)N1C[C@@H](O)C[C@H]1Cc1c(-c2[nH]c3cc(F)ccc3c2C[C@@H]2C[C@H](O)CN2C(=O)[C@H](CC)NC(=O)[C@H](C)N(C)C(=O)OCc2ccccc2)[nH]c2cc(F)ccc12 [Compound A]
- degradation by in vivo esterases to release the active drug Birinapant [2]: have not been degraded at all; also recorded: could not be degraded by in vivo esterase at all
- excreted and recovered [2]: 100%

SMILES: CCCCCOC(=O)N(C)[C@@H](C)C(=O)N[C@@H](CC)C(=O)N1C[C@@H](O)C[C@H]1Cc1c(-c2[nH]c3cc(F)ccc3c2C[C@@H]2C[C@H](O)CN2C(=O)[C@H](CC)NC(=O)[C@H](C)N(C)C(=O)OCCCCC)[nH]c2cc(F)ccc12 [Compound B]
- degradation by in vivo esterases to release the active drug Birinapant [2]: have not been degraded at all; also recorded: could not be degraded by in vivo esterase at all
- excreted and recovered [2]: 100%

SMILES: CC[C@H](NC(=O)[C@H](C)NC)C(=O)N1C[C@@H](O)C[C@H]1Cc1c(-c2[nH]c3cc(F)ccc3c2C[C@@H]2C[C@H](O)CN2C(=O)[C@H](CC)NC(=O)[C@H](C)NC)[nH]c2cc(F)ccc12 [Birinapant]
- side effect in patients ([3]; patients, high doses): paralysis of facial muscles
- safe dose ([3]; per week or twice weekly, cancer clinical trials): 17 mg/M2
- Dose Limited Toxicity ([3]; twice weekly, limited by paralysis of facial muscles, cancer clinical trials): 22 mg/M2
- survival in dosed mice [4]: significantly prolonged
- C0 ([1]; iv): 3470 ng/mL
- AUC0-24 ([1]; iv, 5 mg/kg): 40566 ng·h/g
- AUC0-inf ([1]; iv, 5 mg/kg): 76641 ng·h/g
- AUC0-last ([1]; iv, 5 mg/kg): 66712 ng·h/g
- AUC(0-inf) ([1]; iv, 5 mg/kg): 1090 ng·h/mL
- C0 ([1]; iv, 5 mg/kg): 3470 ng/mL
- Cmax ([1]; iv, 5 mg/kg): 3470 ng/mL and 4280 ng/g
- Kp ([1]; iv, 5 mg/kg): 64
- Tmax ([1]; iv, 5 mg/kg): 0.25 h
- Vd ([1]; iv, 5 mg/kg): 36.3 L/kg
- clearance ([1]; iv, 5 mg/kg): 76.3 mL/min/kg
- AUC(0-t) ([1]; iv, 5 mg/kg, AUC0-24): 967 ng·h/mL
- AUC(0-t) ([1]; iv, 5 mg/kg, AUC0-last): 1040 ng·h/mL
- half-life ([1]; iv, 5 mg/kg, liver): 22.9 h
- half-life ([1]; iv, 5 mg/kg, plasma): 14.6 h
- inhibition of hepatitis B virus, particularly replication of HBsAg [5]: effective in inhibiting hepatitis B virus
